Values belong to the compound of their own block, whether it stands above or below them.
Assay: solvent given as SMILES

fluorescence lifetime (in ClC(Cl)Cl): 17.2 ns
SMILES: CC(C)(C)NC(=O)c1cc2ccc3cccc4ccc(c1C(=O)NC(C)(C)C)c2c34

SMILES: CS1(C)C(/C=C/C2=C(c3ccc(C(=O)O)cc3)C(=C/C=C3/N(CCCCS(=O)(=O)[O-])c4ccccc4S3(C)C)/CCC2)=[N+](CCCCS(=O)(=O)[O-])c2ccccc21
fluorescence lifetime (in CC(C)=O): 1.08 ns
fluorescence lifetime (in CCO): 0.93 ns
fluorescence lifetime (in CO): 0.72 ns
fluorescence lifetime (in CS(C)=O): 1.26 ns
fluorescence lifetime (in ClC(Cl)Cl): 1.31 ns
fluorescence lifetime (in ClCCl): 1.19 ns
fluorescence lifetime (in O): 0.33 ns

SMILES: COc1ccc(C2=C3C=c4c(oc5cc6c(cc45)[C@H]4CC[C@]5(C)C(=O)CC[C@H]5[C@@H]4CC6)=[N+]3[B-](F)(F)n3c2cc2c4cc5c(cc4oc23)CC[C@@H]2[C@@H]5CC[C@]3(C)C(=O)CC[C@@H]23)cc1
fluorescence lifetime (in CCOC(C)=O): 3.94 ns
fluorescence lifetime (in CCOCC): 4.04 ns
fluorescence lifetime (in CO): 3.71 ns

fluorescence lifetime (in C1CCCCC1): 61.8 ns
fluorescence lifetime (in CC#N): 26.2 ns
fluorescence lifetime (in CO): 41.9 ns
fluorescence lifetime (in ClC(Cl)Cl): 36.1 ns
SMILES: CC1(C)CC(NCc2ccc3ccc4cccc5ccc2c3c45)CC(C)(C)N1

fluorescence lifetime (in CCO): 1.93 ns
SMILES: N#CC1=c2cc3c4c(c2Oc2c1cc1c5c2CCCN5CCC1)CCC[N+]=4CCC3

fluorescence lifetime (in O): 15 ns
SMILES: O=S(=O)([O-])c1ccc([O-])c2ccccc12

SMILES: CC1(C)c2ccccc2N(c2ccc(-c3ccc4c(c3)c3cc(-c5ccc(N6c7ccccc7C(C)(C)c7ccccc76)cc5)ccc3c3nc(C#N)c(C#N)nc43)cc2)c2ccccc21
fluorescence lifetime (in O=P(c1ccccc1)(c1ccccc1)c1cccc(-c2cc(-n3c4ccccc4c4ccccc43)cc(-n3c4ccccc4c4ccccc43)c2)n1): 53.6 ns

SMILES: N#Cc1cc(-n2c3ccccc3c3ccccc32)c(-n2c3ccccc3c3ccccc32)cc1C#N
fluorescence lifetime (in Cc1ccccc1): 28.5 ns

fluorescence lifetime (in C1CCCCC1): 3.99 ns
fluorescence lifetime (in CCOC(C)=O): 4.1 ns
fluorescence lifetime (in CO): 4.02 ns
SMILES: F[B-]1(F)n2c(cc3c4ccccc4oc32)C(c2ccccc2)=C2C=c3c(oc4ccccc34)=[N+]21

fluorescence lifetime (in O): 4 ns
SMILES: COc1ccc2ccc([O-])cc2c1

SMILES: CC1=CC(c2ccc3ccccc3c2)=[O+][B-]2(OC(=O)C(=O)O2)O1
fluorescence lifetime (in CC#N): 18.8 ns
fluorescence lifetime (in ClC(Cl)(Cl)Cl): 5.1 ns

fluorescence lifetime (in C1CCOC1): 3.38 ns
SMILES: C(=C\c1ccccc1/C=C/c1c2ccccc2cc2ccccc12)/c1ccncc1

fluorescence lifetime (in ClC(Cl)Cl): 6.8 ns
SMILES: COc1ccc2c(-c3nc(-c4cccc(Br)c4)no3)cc(=O)oc2c1

fluorescence lifetime (in C1CCCCC1): 8.3 ns
fluorescence lifetime (in CO): 2.1 ns
SMILES: CC1(C)CC(/N=C/c2ccc3ccc4cccc5ccc2c3c45)CC(C)(C)N1[O]

fluorescence lifetime (in CC#N): 3.81 ns
fluorescence lifetime (in CS(C)=O): 4.7 ns
SMILES: [O-]c1c(-c2nc3ccccc3s2)cc2ccc3cccc4ccc1c2c34

fluorescence lifetime (in ClCCl): 4.76 ns
SMILES: [O-][n+]1c(-c2ccccc2)cc(N2CCOCC2)nc1/C=C/c1ccccc1

SMILES: CCCCCCCCN1c2ccc(C#Cc3ccc(OC)cc3)cc2Sc2cc(C=O)ccc21
fluorescence lifetime (in C1CCOC1): 7.1 ns
fluorescence lifetime (in CC#N): 6.03 ns
fluorescence lifetime (in CCCCCC): 6.46 ns
fluorescence lifetime (in CO): 5.08 ns
fluorescence lifetime (in CS(C)=O): 6.6 ns
fluorescence lifetime (in Cc1ccccc1): 7.42 ns
fluorescence lifetime (in ClC(Cl)Cl): 5.65 ns

SMILES: COC(=O)/C(C#N)=c1\s/c(=c2/s/c(=C(/C#N)C(=O)OC)c3cc(-c4ccc(C(F)(F)F)cc4)sc23)c2sc(-c3ccc(C(F)(F)F)cc3)cc12
fluorescence lifetime (in Cc1ccccc1): 2.32 ns

fluorescence lifetime (in CS(C)=O): 2.2 ns
SMILES: CCCCCCCCCCCCOc1cc2cc(N(C)C)ccc2cc1C=C(C#N)C#N

fluorescence lifetime (in ClCCl): 9 ns
SMILES: O=c1c2cccc3cccc(c32)c2nc3c(F)c(F)c(F)c(F)c3n12

fluorescence lifetime (in C1COCCO1): 1.22 ns
SMILES: c1ccc(-c2nc(-c3nc(-c4ccccc4)c(-c4ccccc4)o3)oc2-c2ccccc2)cc1

fluorescence lifetime (in CC#N): 4.5 ns
SMILES: O=c1oc2cc(S(=O)(=O)O)c3ccccc3c2nc1-c1ccccc1

fluorescence lifetime (in C1CCCCC1): 2.7 ns
fluorescence lifetime (in CCOC(C)=O): 0.911 ns
SMILES: CC1=[N+]2C(=C(Oc3ccc4c(c3)CC[C@@H]3[C@@H]4CC[C@]4(C)C(=O)CC[C@@H]34)c3ccc(C)n3[B-]2(F)F)C=C1c1cc2n(c1)[B-](F)(F)[N+]1=CC=CC1=C2c1c(C)cc(C)cc1C

SMILES: Cc1cc(-c2ccc(-c3ccccc3)cc2)nc(-c2ccc(-n3c4ccccc4c4ccccc43)cc2)n1
fluorescence lifetime (in C1CCOC1): 3.36 ns
fluorescence lifetime (in CN(C)C=O): 12.2 ns
fluorescence lifetime (in Cc1ccccc1): 1.15 ns
fluorescence lifetime (in ClC(Cl)Cl): 3.19 ns

fluorescence lifetime (in ClCCl): 5.3 ns
SMILES: COc1ccc(-c2cc3c(s2)c(C(=O)c2ccccc2)cc(=O)n3Cc2ccccc2)cc1

fluorescence lifetime (in CC#N): 3.5 ns
fluorescence lifetime (in CCO): 3.24 ns
fluorescence lifetime (in O): 3.28 ns
SMILES: CC(=O)OC[C@@H]1O[C@H](n2cnc3c2N=CN2Cc4c[n+](C)c(C)nc4N=C32)[C@@H](O)[C@H]1O

SMILES: c1ccc2c(c1)CCc1ccccc1N2c1c2ccccc2c(N2c3ccccc3CCc3ccccc32)c2ccccc12
fluorescence lifetime (in Cc1ccccc1): 34 ns

fluorescence lifetime (in ClCCl): 6.1 ns
SMILES: F[B-]1(F)n2c(c3c(c2-c2ccccc2)C2C=CC3CC2)C(c2ccccc2)=C2C3=C(C(c4ccccc4)=[N+]21)C1C=CC3CC1 (stereo not drawn)

SMILES: CCCCCCC(CCCCCC)N1C(=O)c2cccc3c(-c4ccc(OC)cc4)ccc(c23)C1=O
fluorescence lifetime (in CCCCCC): 2.65 ns
fluorescence lifetime (in CCCCCCCCCCCCCC): 3.12 ns
fluorescence lifetime (in CCCCCCCCCCCO): 4.78 ns
fluorescence lifetime (in CCCCO): 5.18 ns
fluorescence lifetime (in CN(C)C=O): 5.24 ns
fluorescence lifetime (in Cc1ccccc1): 3.5 ns
fluorescence lifetime (in ClC(Cl)Cl): 4.11 ns

Source: the Deep4Chem optical property database
